Measured values from the supplement of paper PMC11061612.

What was measured:
[1] = test system: LOUCY (T-Lymphoblastic Leukemia); assay: Bliss excess, mean over the matrix (fraction); higher = more synergy
How it was run: (§1)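 Cell lines grown in DMEM/F12 or RPMI with 10% FBS were plated in 1536-well plates and held 24 hours at 37°C, 5% CO2 before 72 hours of exposure to two-drug dose matrices, with DMSO typically at 0.2%. CellTiter-Glo 2.0 luminescence gave viability, which was converted to inhibition. Vehicle wells were set to 0 and blank wells to 1. Combination Emax is the second-highest inhibition in the matrix, and Bliss excess is the observed combination effect minus the expected EA + EB − EA·EB, where EA and EB are the single-agent effects.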

[2] = test system: OVTOKO (Ovarian Carcinoma); assay: as above
How it was run: as §1

[3] = test system: SJRH30 (Rhabdomyosarcoma); assay: as above
How it was run: as §1

[4] = test system: NCI-H1563 (Lung Adenocarcinoma); assay: as above
How it was run: as §1

[5] = test system: RL95-2 (Endometrial Carcinoma); assay: as above
How it was run: as §1

[6] = test system: PC-14 (Lung Adenocarcinoma); assay: as above
How it was run: as §1

[7] = test system: Becker (Low Grade Glioma); assay: as above
How it was run: as §1

[8] = test system: HTC-C3 (Thyroid Gland Carcinoma); assay: as above
How it was run: as §1

[9] = test system: RMG-I (Ovarian Carcinoma); assay: as above
How it was run: as §1

[10] = test system: AN3-CA (Endometrial Carcinoma); assay: as above
How it was run: as §1

[11] = test system: Caov-3 (Ovarian Carcinoma); assay: as above
How it was run: as §1

[12] = test system: NCI-H196 (Small Cell Lung Carcinoma); assay: as above
How it was run: as §1

KYM-1 (Rhabdomyosarcoma) = assay: as above
How it was run: as §1

[13] = test system: SK-MM-2 (Plasma Cell Myeloma); assay: as above
How it was run: as §1

[14] = test system: BALL-1 (B-Lymphoblastic Leukemia); assay: as above
How it was run: as §1

[15] = test system: COLO-684 (Endometrial Carcinoma); assay: as above
How it was run: as §1

RT4 (Bladder Carcinoma) = assay: as above
How it was run: as §1

[16] = test system: NCI-H810 (Non-Small Cell Lung Carcinoma); assay: as above
How it was run: as §1

[17] = test system: OVTOKO (Ovarian Carcinoma); assay: combination Emax (second highest fraction inhibited in the dose matrix, 72 h); higher = more inhibition; extreme values may be limits of the assay
How it was run: as §1

[18] = test system: NCI-H1155 (Non-Small Cell Lung Carcinoma); assay: as above
How it was run: as §1
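Wherever Bliss excess, mean over the matrix is given: after 72 h of two-drug dosing.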

SMILES	Bliss excess [1]	Bliss excess [2]	Bliss excess [3]	Bliss excess [4]	Bliss excess [5]	Bliss excess [6]	Bliss excess [7]	Bliss excess [8]	Bliss excess [9]	Bliss excess [10]	Bliss excess [11]	Bliss excess [12]	Bliss excess (KYM-1 (Rhabdomyosarcoma))	Bliss excess [13]	Bliss excess [14]	Bliss excess [15]	Bliss excess (RT4 (Bladder Carcinoma))	Bliss excess [16]	combination Emax [17]	combination Emax [18]
C=CCn1c(=O)c2cnc(Nc3ccc(N4CCN(C)CC4)cc3)nc2n1-c1cccc(C(C)(C)O)n1 [AZD1775] + C[C@@H]1COCCN1C2=NC(=NC(=C2)C3(CC3)[S@](=N)(=O)C)C4=C5C=CNC5=NC=C4 [AZD6738] (first compound max 1 µM, partner max 10 µM)	0.025	-0.0308	0.0467	-0.0303	0.0402	-0.005	0.0428	0.101	-0.0161	-0.0159	-0.025	-0.0093	0.0587	-0.0211	0.0441	0.0245	-0.0068	0.0223	0.56	0.864
CC1(C)CCC(CN2CCN(c3ccc(C(=O)NS(=O)(=O)c4ccc(NCC5CCOCC5)c([N+](=O)[O-])c4)c(Oc4cnc5[nH]ccc5c4)c3)CC2)=C(c2ccc(Cl)cc2)C1 [Venetoclax] + Cc1cc2ncnn2cc1Nc1ncc2c(n1)n(C1CCOCC1)c(=O)n2C [AZD7648] (first compound max 1 µM, 7x7, partner max 10 µM)	0.0678	-0.0518	0.0112	-0.0123	-0.0025	-0.0163	0.0128	-0.0197	-0.0277	-0.0108	-0.159	-0.0385	-0.0074	0.0145	-0.0008	-0.0205	-0.0115	-0.028	0.381	0.164
Cc1c2c(nn1C)CSCc1cc(n(C)n1)CSc1cc(c3ccccc3c1)OCCCc1c(C(=O)O)n(C)c3c-2c(Cl)ccc13 [AZD5991] + C1CN(CCC1(C(=O)N[C@@H](CCO)C2=CC=C(C=C2)Cl)N)C3=NC=NC4=C3C=CN4 [Capivasertib] (first compound max 1 µM, 7x7, partner max 3 µM)	0.0143	-0.0287	0.0568	0.0837	0.0001	0.0145	-0.0169	-0.0091	-0.0488	0.145	-0.01	-0.0499	0.0807	-0.0186	0.0369	-0.0411	0.023	0.0083	0.367	0.525
Cc1c2c(nn1C)CSCc1cc(n(C)n1)CSc1cc(c3ccccc3c1)OCCCc1c(C(=O)O)n(C)c3c-2c(Cl)ccc13 [AZD5991] + CN(C)CCCOc1ccc(-c2ccc3ncc4c(c3c2)n(C2CCOCC2)c(=O)n4C)cn1 [AZD0156] (first compound max 1 µM, 7x7, partner max 1 µM)	0.0428	0.0042	0.0026	-0.009	-0.0252	0.0236	-0.0128	-0.0082	0.0092	-0.0338	0.0036	-0.0207	0.0046	0.0254	0.0361	-0.0546	0.0149	-0.0034	0.319	0.626
CC1(C)CCC(CN2CCN(c3ccc(C(=O)NS(=O)(=O)c4ccc(NCC5CCOCC5)c([N+](=O)[O-])c4)c(Oc4cnc5[nH]ccc5c4)c3)CC2)=C(c2ccc(Cl)cc2)C1 [Venetoclax] + CN(C)CCCOc1ccc(-c2ccc3ncc4c(c3c2)n(C2CCOCC2)c(=O)n4C)cn1 [AZD0156] (first compound max 1 µM, 7x7, partner max 1 µM)	0.0594	-0.086	0.0084	-0.0099	-0.0027	0.0043	0.0229	-0.0378	-0.016	-0.06	-0.0386	-0.0333	0.013	-0.0129	0.031	-0.0356	-0.0259	-0.0485	0.385	0.145
COc1cccc(OCCCN)c1-c1cc(Nc2cnc(C#N)cn2)n[nH]1 [Prexasertib] + CCc1c2c(nc3ccc(O)cc13)-c1cc3c(c(=O)n1C2)COC(=O)[C@]3(O)CC [SN-38] (first compound max 1 µM, 7x7, partner max 0.3 µM)	0.0103	-0.0192	0.012	-0.0111	0.153	-0.0169	-0.0716	0.0844	-0.102	0.0972	-0.0539	0.0391	-0.0634	-0.0714	-0.016	0.0379	-0.0055	0.0967	0.532	0.993
CN(C)CCCOc1ccc(-c2ccc3ncc4c(c3c2)n(C2CCOCC2)c(=O)n4C)cn1 [AZD0156] + CCN(CCO)CCCOc1ccc2c(Nc3cc(CC(=O)Nc4cccc(F)c4)[nH]n3)ncnc2c1 [AZD2811] (first compound max 1 µM, 7x7, partner max 1 µM)	-0.0646	-0.0337	0.0035	-0.006	0.0016	-0.0042	-0.0293	-0.0198	-0.072	-0.0019	-0.0478	-0.05	-0.0186	-0.0131	0.171	-0.0036	-0.0063	0.0302	0.113	0.377
